Values of other authors, collected in patent US8496977B2, “Natural extract from whole banana fruit (Musa Spp)” (priority 2009, dated 2013).

What was measured:
eicosanoid synthesis = settings: by modulating eicosanoid synthesis

Question: For `NCCc1ccc(O)c(O)c1` [dopamine], which “protection against intestinal mucosal injury” value (eicosanoid synthesis) is on record?
Answer: Its value is “protect against intestinal mucosal injury”.

Question: And the radical-scavenging rate (compared with catechin and gallocatechin gallate)?
Answer: The radical-scavenging rate was “faster radical-scavenging rate than catechin”.

Question: What about the antioxidative potency (compared with other antioxidants) of the same molecule?
Answer: Its antioxidative potency is “greater than that of BHA, BHT, flavonoids, glutathione, and catechin”.
